Data: US20220089589A1, “SMALL MOLECULE DEGRADERS OF FKBP12 VIA RECRUITMENT OF VON HIPPEL-LINDAU E3 UBIQUITIN LIGASE (VHL) E3 UBIQUITIN LIGASE, AND USES IN dTAG SYSTEMS” (DANA-FARBER CANCER INSTITUTE, INC., priority 2019, published 2022)
“Also recorded” adds a separate entry of the source.

What was measured:
Type in all cases: cell-based
[1] = test system: LACZ-FKBP12^F36V; assay: Immunoblotting of PATU-8902 LACZ-FKBP12^F36V clone (Example 6); conditions: 50 or 500 nM, 4 hrs
Experimental: (§1) PATU-8902 LACZ-FKBP12^F36V clone was plated in 6-well format, allowed to adhere overnight, and treated with 50 nM and 500 nM dTAG molecules for 4 hrs. Following treatment, cells were lysed in RIPA buffer on ice for 60 minutes. Lysates were clarified by centrifugation at 20,000×g for 10 minutes at 4° C. Immunoblotting was performed to determine changes in protein levels with an Odyssey CLx Imager. The indicated antibodies were employed including HA (hemagglutinin) to monitor LACZ-FKBP12^F36V degradation and α-TUBULIN as a loading control.

[2] = test system: FKBP12^F36V-KRAS^G12V; assay: Immunoblotting of PATU-8902 FKBP12^F36V-KRAS^G12V; KRAS^−/− clone (Example 8), HA; conditions: 50 or 500 nM, 4 hrs
Experimental: as §1, with “FKBP12^F36V-KRAS^G12V; KRAS^−/−” for “LACZ-FKBP12^F36V”, “HA” for “HA (hemagglutinin)”, “FKBP12^F36V-KRAS^G12V degradation, total and phosphorylated ERK to evaluate changes in ERK signaling, total and phosphorylated AKT to evaluate changes in AKT signaling” for “LACZ-FKBP12^F36V degradation”

[3] = test system: pERK; assay: Immunoblotting of PATU-8902 FKBP12^F36V-KRAS^G12V; KRAS^−/− clone (Example 8), ERK signaling; conditions: 50 or 500 nM, 4 hrs
Experimental: as §1, with “FKBP12^F36V-KRAS^G12V; KRAS^−/−” for “LACZ-FKBP12^F36V”, “HA” for “HA (hemagglutinin)”, “FKBP12^F36V-KRAS^G12V degradation, total and phosphorylated ERK to evaluate changes in ERK signaling, total and phosphorylated AKT to evaluate changes in AKT signaling” for “LACZ-FKBP12^F36V degradation”

[4] = test system: pAKT; assay: Immunoblotting of PATU-8902 FKBP12^F36V-KRAS^G12V; KRAS^−/− clone (Example 8), AKT signaling; conditions: 50 or 500 nM, 4 hrs
Experimental: as §1, with “FKBP12^F36V-KRAS^G12V; KRAS^−/−” for “LACZ-FKBP12^F36V”, “HA” for “HA (hemagglutinin)”, “FKBP12^F36V-KRAS^G12V degradation, total and phosphorylated ERK to evaluate changes in ERK signaling, total and phosphorylated AKT to evaluate changes in AKT signaling” for “LACZ-FKBP12^F36V degradation”

[5] = test system: PATU-8902 FKBP12^F36V-KRAS^G12V; KRAS^−/− clone; assay: Anti-proliferation via CellTiter-Glo, PATU-8902 FKBP12^F36V-KRAS^G12V; KRAS^−/− clone (Example 12); conditions: 0.000063-2 μM, 72 hrs
Experimental: (§2) PATU-8902 LACZ-FKBP12^F36V or FKBP12^F36V-KRAS^G12V; KRAS^−/− clones were plated in 384-well format, allowed to adhere overnight, and treated with various dTAG molecules from compound stock plates using a JANUS® Workstation pin tool for 72 hrs. To measure cell viability, Cell Tilter-Glo® was added to wells for 15 minutes at r.t. and luminescence was measured on an EnVision™ 2104 Multilabel Plate Reader.

[6] = test system: PATU-8902 FKBP12^F36V-KRAS^G12V; KRAS^−/− clone; assay: Cell transformation by growth in ultra-low attachment conditions, PATU-8902 FKBP12^F36V-KRAS^G12V; KRAS^−/− clone (Example 13); conditions: 0.000063-2 μM, 120 hrs
Experimental: as §2, with “format in ultra-low attachment conditions,” for “format,”, “form 3D-spheroids” for “adhere”, “120” for “72”, “transformation,” for “viability,”, “room temperature” for “r.t.”

[7] = test system: NIH/3T3 cells expressing FKBP12^F36V-KRAS^G12V; assay: Anti-proliferation in NIH/3T3 cells expressing FKBP12^F36V-KRAS^G12V by ATPlite assay; conditions: 0.00063-20 μM, 72 hrs, NIH/3T3 expressing FKBP12^F36V-KRAS^G12V
Experimental: (§3) NIH/3T3 cells, that were mock transduced (control) or stably expressing with FKBP12^F36V-KRAS^G12V, were plated in 384-well format, allowed to adhere overnight, and treated with various dTAG molecules from compound stock plates using a JANUS® Workstation pin tool for 72 hrs. To measure cell viability, ATPlite™ was added to wells for 15 minutes at room temperature and luminescence was measured on an EnVision™ 2104 Multilabel Plate Reader.

[8] = test system: FKBP12^F36V-KRAS^G12V; assay: Immunoblotting of 293T^WT FKBP12^F36V-KRAS^G12V cells; conditions: 50 or 500 nM, 24 hrs
Experimental: as §1, with “293T^WT or 293T^VHL−/− FKBP12^F36V-KRAS^G12V cells were plated” for “PATU-8902 LACZ-FKBP12^F36V clone was plated”, “for 24” for “for 4”, “HA” for “HA (hemagglutinin)”, “monitor FKBP12^F36V-KRAS^G12V” for “monitor LACZ-FKBP12^F36V”

[9] = test system: FKBP12^F36V-KRAS^G12V; assay: Immunoblotting of 293T^VHL−/− FKBP12^F36V-KRAS^G12V cells; conditions: 50 or 500 nM, 24 hrs
Experimental: as §1, with “293T^WT or 293T^VHL−/− FKBP12^F36V-KRAS^G12V cells were plated” for “PATU-8902 LACZ-FKBP12^F36V clone was plated”, “for 24” for “for 4”, “HA” for “HA (hemagglutinin)”, “monitor FKBP12^F36V-KRAS^G12V” for “monitor LACZ-FKBP12^F36V”

[10] = test system: PATU-8902 FKBP12^F36V-KRAS^G12V; KRAS^−/− clone; assay: Anti-proliferation via CellTiter-Glo, PATU-8902 FKBP12^F36V-KRAS^G12V; KRAS^−/− clone (Example 11); conditions: 0.00063-20 μM, 72 hrs
Experimental: as §2, with “CellTilter-Glo®” for “Cell Tilter-Glo®”

[11] = test system: PATU-8902 LACZ-FKBP12^F36V clone; assay: Anti-proliferation via CellTiter-Glo, PATU-8902 LACZ-FKBP12^F36V control clone (Example 11); conditions: 0.00063-20 μM, 72 hrs
Experimental: as §2, with “CellTilter-Glo®” for “Cell Tilter-Glo®”

[12] = test system: PATU-8902 LACZ-FKBP12^F36V clone; assay: Anti-proliferation via CellTiter-Glo, PATU-8902 LACZ-FKBP12^F36V control clone (Example 12); conditions: 0.000063-2 μM, 72 hrs
Experimental: as §2

[13] = test system: PATU-8902 LACZ-FKBP12^F36V clone; assay: Cell transformation by growth in ultra-low attachment conditions, PATU-8902 LACZ-FKBP12^F36V control clone (Example 13); conditions: 0.000063-2 μM, 120 hrs
Experimental: as §2, with “format in ultra-low attachment conditions,” for “format,”, “form 3D-spheroids” for “adhere”, “120” for “72”, “transformation,” for “viability,”, “room temperature” for “r.t.”

[14] = test system: FKBP12^F36V-GFP; assay: Immunoblotting of EWS502 FKBP12^F36V-GFP cells; conditions: dTAG-13 10-5000 nM, compound 1 50-5000 nM, 24 hrs
Experimental: (§4) EWS502 FKBP12^F36V-GFP and FKBP12^F36V-EWS/FLI; EWS/FLP^−/− cells were plated in 6-well format, allowed to adhere overnight, and treated with (10-5000 nM) dTAG-13 or (50-5000 nM) compound 1 for 24 hrs. Following treatment, cells were lysed in Cell Lysis Buffer (Cell Signaling Technology®) on ice for 60 minutes. Lysates were clarified by centrifugation at 20,000×g for 10 minutes at 4° C. Immunoblotting was performed to determine changes in protein levels upon incubation with the appropriate horseradish peroxidase-conjugated secondary antibodies. The indicated antibodies were employed including HA to monitor FKBP12^F36V-GFP or FKBP12^F36V-EWS/FLI degradation and Vinculin as a loading control.

[15] = test system: FKBP12^F36V-EWS/FLI; assay: Immunoblotting of EWS502 FKBP12^F36V-EWS/FLI; EWS/FLI^−/− cells; conditions: dTAG-13 10-5000 nM, compound 1 50-5000 nM, 24 hrs, EWS502 cells
Experimental: as §4

[16] = test system: control NIH/3T3 cells; assay: Anti-proliferation in mock transduced (control) NIH/3T3 cells by ATPlite assay; conditions: 0.00063-20 μM, 72 hrs, at high doses
Experimental: as §3

SMILES | degradation of LACZ-FKBP12^F36V (immunoblot) [1] | degradation of FKBP12^F36V-KRAS^G12V (immunoblot) [2] | pERK levels (immunoblot) [3] | pAKT levels (immunoblot) [4] | anti-proliferative effects / loss of cell viability (% DMSO control) [5] | loss of cell transformation (3D-spheroids, % DMSO control) [6] | anti-proliferative effects / loss of cell viability (% DMSO control) [7] | degradation of FKBP12^F36V-KRAS^G12V in 293T^WT cells (immunoblot) [8] | degradation of FKBP12^F36V-KRAS^G12V in 293T^VHL−/− cells (immunoblot) [9] | anti-proliferative effects / loss of cell viability (% DMSO control) [10] | anti-proliferative effects on LACZ-FKBP12^F36V control clone [11] | anti-proliferative effects on LACZ-FKBP12^F36V control clone [12] | effects on cell transformation of LACZ-FKBP12^F36V control clone [13] | degradation of FKBP12^F36V-GFP (immunoblot) [14] | degradation of FKBP12^F36V-EWS/FLI (immunoblot) [15] | anti-proliferative effects on control cells [16]
CC[C@H](C(=O)N1CCCC[C@H]1C(=O)O[C@H](CCc1ccc(OC)c(OC)c1)c1ccccc1OCC(=O)NCCCCCCOc1cccc2c1C(=O)N(C1CCC(=O)N(C)C1=O)C2=O)c1cc(OC)c(OC)c(OC)c1 (stereo partly drawn) [Compound 5] | Lack of degradation; also recorded: no effect | Lack of degradation; also recorded: no effect | no effect | no effect | little to no loss of viability; also recorded: little to no toxicity | little to no loss of viability; also recorded: limited toxicity at high doses |  |  |  |  |  |  |  |  |  | 
CC[C@H](C(=O)N1CCCC[C@H]1C(=O)O[C@H](CCc1ccc(OC)c(OC)c1)c1ccccc1OCC(=O)NCCCCCCOc1cccc2c1C(=O)N(C1CCC(=O)NC1=O)C2=O)c1cc(OC)c(OC)c(OC)c1 (stereo partly drawn) [dTAG-13, reference compound] | rapid degradation; also recorded: potent degradation | potent degradation | pronounced diminished levels | pronounced diminished levels | Effective loss of viability; also recorded: potent anti-proliferative effects | Effective loss of viability; also recorded: potent loss of cell transformation | Effective loss of viability; also recorded: potent anti-proliferative effects | potent degradation | Degradation of mutant KRAS was observed; also recorded: potent degradation | Effective loss of viability; also recorded: potent anti-proliferative effects | limited effects | limited effects | limited effects | Degradation of GFP (control) is observed; also recorded: potent degradation | not | 
CC[C@H](C(=O)N1CCCC[C@H]1C(=O)O[C@H](CCc1ccc(OC)c(OC)c1)c1ccccc1OCC(=O)NCCOCCOCCOCC(=O)N[C@H](C(=O)N1C[C@H](O)C[C@H]1C(=O)N[C@@H](C)c1ccc(-c2scnc2C)cc1)C(C)(C)C)c1cc(OC)c(OC)c(OC)c1 [dTAG-63] |  |  |  |  |  |  | Effective loss of viability; also recorded: potent anti-proliferative effects |  |  | Effective loss of viability; also recorded: potent anti-proliferative effects | limited effects |  |  |  |  | Limited anti-proliferative effects
CC[C@H](C(=O)N1CCCC[C@H]1C(=O)O[C@H](CCc1ccc(OC)c(OC)c1)c1ccccc1OCC(=O)NCCOCCOCCOCC(=O)N[C@H](C(=O)N1C[C@H](O)C[C@H]1C(=O)NCc1ccc(-c2scnc2C)cc1)C(C)(C)C)c1cc(OC)c(OC)c(OC)c1 [dTAG-12] |  |  |  |  |  |  | Effective loss of viability; also recorded: potent anti-proliferative effects |  |  |  |  |  |  |  |  | Limited anti-proliferative effects
CC[C@H](C(=O)N1CCCC[C@H]1C(=O)O[C@H](CCc1ccc(OC)c(OC)c1)c1ccccc1OCC(=O)NCCCCCCC(=O)N[C@H](C(=O)N1C[C@@H](O)C[C@@H]1C(=O)N[C@@H](C)c1ccc(-c2scnc2C)cc1)C(C)(C)C)c1cc(OC)c(OC)c(OC)c1 [Compound 2, (R)-3-(3,4-dimethoxyphenyl)-1-(2-(2-((7-(((S)-1-((2R,4S)-4-hydroxy-2-(((S)-1-(4-(4-methylthiazol-5-yl)phenyl)ethyl)carbamoyl)pyrrolidin-1-yl)-3,3-dimethyl-1-oxobutan-2-yl)amino)-7-oxoheptyl)amino)-2-oxoethoxy)phenyl)propyl (S)-1-((S)-2-(3,4,5-trimethoxyphenyl)butanoyl)piperidine-2-carboxylate] | Lack of degradation; also recorded: no effect | Lack of degradation; also recorded: no effect | no effect | no effect | little to no loss of viability; also recorded: little to no toxicity | little to no loss of viability; also recorded: limited toxicity at high doses |  |  |  |  |  |  |  |  |  | 
